The numbers were not newly measured in US8440796B2, “Lenalidomide and thalidomide immunoassays” (Saladax Biomedical Inc., priority 2010, dated 2013), which cites them from elsewhere.

The conditions of data set [1]: patients with central nervous system tumors.
For data set [2] the following is noted: HIV patients, phase I study.
The conditions of data set [3]: healthy subjects.

Read-outs that look alike come from different tables or passages of the source.

Consider `Nc1cccc2c1CN(C1CCC(=O)NC1=O)C2=O` (stereo not drawn) [lenalidomide], for which, in data set [1], the “variability in Cmax” value is given as “up to 78%” and the “variability in t1/2” value is “up to 122%”.

Consider `O=C1CCC(N2C(=O)c3ccccc3C2=O)C(=O)N1` (stereo not drawn) [thalidomide], for which, in data set [2], the “half-life time t1/2” value is 5.9 ± 2.3 h and the “maximum drug concentration Cmax” value is 2800 ± 2600 ng/mL. Moreover, in data set [3], the “variability in Cmax” value is recorded as “up to 52%” and the “variability in t1/2” value is recorded as “up to 37%”.
